Results as given in ChEMBL document CHEMBL1121424, “Orally active cephalosporins and penicillins” (J Med Chem, 1980).
Converted amounts (≈) assume the structure as drawn.

system: not listed separately; experiment: Tested for the peak time in mice following 40 mg/kg oral dose of cephalosporin; assay type: ADME, organism-based; design: dose 40 mg/kg, route oral; conditions: mouse, in vivo, read-out: Peak time (converted)

For `CC1=C(C(=O)O)N2C(=O)C(NC(=O)[C@H](N)c3ccc4c(c3)OCO4)C2SC1` (stereo partly drawn), which Tmax is on record?
Its Tmax is 10 min.

system: Escherichia coli; experiment: Tested for the antimicrobial activity against Escherichia coli in mice perorally; assay type: functional; conditions: po

For `CC1=C(C(=O)O)N2C(=O)C(NC(=O)[C@H](N)c3ccc4c(c3)OCO4)C2SC1` (stereo partly drawn), which ED50 is on record?
Its ED50 is 28 mg/kg.

system: Klebsiella pneumoniae; experiment: Tested for inhibition of visible growth of Klebsiella pneumoniae; assay type: functional; conditions: not given

With `CC1=C(C(=O)O)N2C(=O)C(NC(=O)[C@H](N)c3ccc4c(c3)OCO4)C2SC1` (stereo partly drawn) as the compound, how does the MIC read?
Its MIC is 25 µg/mL (≈ 63.9 µM).

system: Staphylococcus aureus; experiment: Tested for the antimicrobial activity against Staphylococcus aureus; assay type: functional; conditions: not given

For `CC1=C(C(=O)O)N2C(=O)C(NC(=O)[C@H](N)c3ccc4c(c3)OCO4)C2SC1` (stereo partly drawn), which ED50 is on record?
The ED50 was 0.45 mg/kg.

system: Streptococcus pyogenes; experiment: Tested for inhibition of visible growth of Streptococcus pyogenes; assay type: functional; conditions: not given

With `CC1=C(C(=O)O)N2C(=O)C(NC(=O)[C@H](N)c3ccc4c(c3)OCO4)C2SC1` (stereo partly drawn) as the compound, how does the MIC read?
Its MIC is 0.8 µg/mL (≈ 2.04 µM).

system: not listed separately; experiment: (§1) Tested for the antimicrobial activity against Salmonella schottmuelleri in mice; assay type: functional; conditions: not given

Which ED50 does the source give for `CC1=C(C(=O)O)N2C(=O)C(NC(=O)[C@H](N)c3ccc4c(c3)OCO4)C2SC1` (stereo partly drawn) here?
Its ED50 is 33 mg/kg.

system: Staphylococcus aureus; experiment: Tested for the antimicrobial activity against Staphylococcus aureus, benzyl-penicillin sensitive in mice, perorally; assay type: functional; conditions: po

Which ED50 does the source give for `CC1=C(C(=O)O)N2C(=O)C(NC(=O)[C@H](N)c3ccc4c(c3)OCO4)C2SC1` (stereo partly drawn) here?
The ED50 was 0.61 mg/kg.

system: Escherichia coli; experiment: Tested for inhibition of visible growth of Escherichia coli; assay type: functional; conditions: not given

Which MIC does the source give for `CC1=C(C(=O)O)N2C(=O)C(NC(=O)[C@H](N)c3ccc4c(c3)OCO4)C2SC1` (stereo partly drawn) here?
The MIC was 25 µg/mL (≈ 63.9 µM).

system: Escherichia coli; experiment: Tested for the antimicrobial activity against Escherichia coli in mice; assay type: functional; conditions: not given

Which ED50 does the source give for `CC1=C(C(=O)O)N2C(=O)C(NC(=O)[C@H](N)c3ccc4c(c3)OCO4)C2SC1` (stereo partly drawn) here?
The ED50 was 15 mg/kg.

system: Streptococcus pneumoniae; experiment: Tested for inhibition of visible growth of Streptococcus pneumoniae; assay type: functional; conditions: not given

Which MIC does the source give for `CC1=C(C(=O)O)N2C(=O)C(NC(=O)[C@H](N)c3ccc4c(c3)OCO4)C2SC1` (stereo partly drawn) here?
The MIC was 1.6 µg/mL (≈ 4.09 µM).

system: Enterococcus faecalis; experiment: Tested for inhibition of visible growth of Streptococcus faecalis; assay type: functional; conditions: not given

Which MIC does the source give for `CC1=C(C(=O)O)N2C(=O)C(NC(=O)[C@H](N)c3ccc4c(c3)OCO4)C2SC1` (stereo partly drawn) here?
Its MIC is over 100 µg/mL.

system: Proteus mirabilis; experiment: Tested for inhibition of visible growth of Proteus mirabilis; assay type: functional; conditions: not given

For `CC1=C(C(=O)O)N2C(=O)C(NC(=O)[C@H](N)c3ccc4c(c3)OCO4)C2SC1` (stereo partly drawn), which MIC is on record?
Its MIC is over 100 µg/mL.

system: not listed separately; experiment: Tested for inhibition of visible growth of Salmonella schottmuelleri; assay type: functional; conditions: not given

Which MIC does the source give for `CC1=C(C(=O)O)N2C(=O)C(NC(=O)[C@H](N)c3ccc4c(c3)OCO4)C2SC1` (stereo partly drawn) here?
The MIC was 12.5 µg/mL (≈ 31.9 µM).

system: Staphylococcus aureus; experiment: Tested for inhibition of visible growth of Staphylococcus aureus; assay type: functional; conditions: not given

For `CC1=C(C(=O)O)N2C(=O)C(NC(=O)[C@H](N)c3ccc4c(c3)OCO4)C2SC1` (stereo partly drawn), which MIC is on record?
The MIC was 3.1 µg/mL (≈ 7.92 µM).

system: Staphylococcus aureus; experiment: Tested for inhibition of visible growth of Staphylococcus aureus, benzyl-penicillin sensitive; assay type: functional; conditions: not given

With `CC1=C(C(=O)O)N2C(=O)C(NC(=O)[C@H](N)c3ccc4c(c3)OCO4)C2SC1` (stereo partly drawn) as the compound, how does the MIC read?
The MIC was 0.4 µg/mL (≈ 1.02 µM).

system: Streptococcus pneumoniae; experiment: (§2) Tested for the antimicrobial activity against Streptococcus pneumoniae in mice; assay type: functional; conditions: not given

Which ED50 does the source give for `CC1=C(C(=O)O)N2C(=O)C(NC(=O)[C@H](N)c3ccc4c(c3)OCO4)C2SC1` (stereo partly drawn) here?
Its ED50 is 19 mg/kg.

system: Streptococcus pyogenes; experiment: (§3) Tested for the antimicrobial activity against Streptococcus pyogenes in mice; assay type: functional; conditions: not given

With `CC1=C(C(=O)O)N2C(=O)C(NC(=O)[C@H](N)c3ccc4c(c3)OCO4)C2SC1` (stereo partly drawn) as the compound, how does the ED50 read?
Its ED50 is 1 mg/kg.

system: Streptococcus pyogenes; experiment: as §3; assay type: functional; conditions: not given

With `CC1=C(C(=O)O)N2C(=O)C(NC(=O)[C@H](N)c3ccc4c(c3)OCO4)C2SC1` (stereo partly drawn) as the compound, how does the ED50 read?
Its ED50 is 1.4 mg/kg.

system: Streptococcus pneumoniae; experiment: as §2; assay type: functional; conditions: not given

With `CC1=C(C(=O)O)N2C(=O)C(NC(=O)[C@H](N)c3ccc4c(c3)OCO4)C2SC1` (stereo partly drawn) as the compound, how does the ED50 read?
The ED50 was 26 mg/kg.

system: not listed separately; experiment: as §1; assay type: functional; conditions: not given

Which ED50 does the source give for `CC1=C(C(=O)O)N2C(=O)C(NC(=O)[C@H](N)c3ccc4c(c3)OCO4)C2SC1` (stereo partly drawn) here?
Its ED50 is 37 mg/kg.

system: Enterobacter cloacae; experiment: Tested for inhibition of visible growth of Enterobacter cloacae; assay type: functional; conditions: not given

With `CC1=C(C(=O)O)N2C(=O)C(NC(=O)[C@H](N)c3ccc4c(c3)OCO4)C2SC1` (stereo partly drawn) as the compound, how does the MIC read?
The MIC was over 100 µg/mL.

system: Klebsiella aerogenes; experiment: Tested for inhibition of visible growth of Enterobacter aerogenes; assay type: functional; conditions: not given

For `CC1=C(C(=O)O)N2C(=O)C(NC(=O)[C@H](N)c3ccc4c(c3)OCO4)C2SC1` (stereo partly drawn), which MIC is on record?
The MIC was over 100 µg/mL.

species on record: Mus musculus; experiment: Tested for the antimicrobial activity against Staphylococcus aureus, benzyl-penicillin resistant in mice, perorally; assay type: functional; conditions: po

With `CC1=C(C(=O)O)N2C(=O)C(NC(=O)[C@H](N)c3ccc4c(c3)OCO4)C2SC1` (stereo partly drawn) as the compound, how does the ED50 read?
The ED50 was 3.1 mg/kg.
